Reference: patent US9920295B2, “Bioreactor for isolation of rare cells and methods of use” (The Trustees of the University of Pennsylvania, priority 2012, dated 2018)
pIC50: −log10 of the molar value. Read-outs that look alike come from different tables or passages of the source.

How the values were obtained:
Type in all cases: cell-based, human
[1] = tested on: CD34+-derived cells (CFU-GM, BFU-E); experiment: Colony forming assay
Procedure: 1000-3000 CD34^+-derived cells were seeded into methylcellulose containing media (MethoCult H4434, StemCell Technologies) supplemented with SCF, GM-CSF, IL-3, Epo. They were cultured for 14 days and colonies were scored at 10× magnification based on the published morphological criteria by StemCell Technoloigies. Colony forming content was normalized per 10,000 cells seeded.

MKs = experiment: In vitro platelet generation from MKs; conditions: 20 μM for 3 d, then 3 d of no drug
Procedure: For platelet-activation assays, platelet-sided fraction isolated from either MK culture or NSG blood was resuspended in Tyrode's buffer supplemented with Mg^2+ and Ca^2+, and incubated with indicated agonists for 15 min at 37° C., followed by staining with FITC-conjugated anti-human P-selectin or PAC-1 antibody (BD Bioscience), APC-conjugated anti-human CD41, and in the case of xenograft samples, PE-conjugated anti-mouse CD41 for 15 min at room temperature, followed by fixation with 1.5% paraformaldehyde. Antibody-stained samples were then analyzed by flow cytometry. Platelet number was evaluated by mixing each sample with a defined number (˜10,000 beads per sample) of APC-conjugated beads (BD Bioscience). The number of platelets per sample was evaluated by: number of CD41^+ events/number of APC-bead events multiplied by total known number of APC-bead added per sample.
Transplantation of uncultured human cord-blood CD34^+ cells in immuno-deficient nonobese diabetic (NOD)/SCID mice has been shown previously to yield sustained generation of human platelets (Salles et al., 2009, Blood, 114:5044-5051), but the intravenous delivery route used to date requires a large number of cells for homing and engraftment. Intrabone marrow transplantation was instead used here to more rapidly expose injected cells to the marrow microenvironment per FIG. 1A. […]

BM CD34+-derived cells = experiment: Micropipette aspiration of CD34+-derived cells
Procedure: Cells from BMCD34^+, cultured in SCF and Tpo between 3 and 8 days, were treated with 20 μM blebbistatin for 30 min to 1 h, followed by micropipette analysis. Capillary tubes of 1.0-mm inner diameter (World Precision Instruments) were pulled into micropipettes using a Flaming-Brown Micropipette Puller (Sutter Instrument) and cut further using a deFonbrune-type microforge (Vibratome). The average micropipette diameter was around 3 μm. Micropipettes were attached to a dual-stage water manometer with reservoirs of adjustable height. Suction was applied by a syringe, and the corresponding pressure was measured by pressure transducer (Validyne), calibrated by a mercury U-tube manometer. Pressures for different experiments ranged from 0.5 to 20 kPa. In some cases, cells were labeled with a very low dose (10 nM) of fluorescent BODIPY-Taxol (Invitrogen) for 1 h at 37° C. to visualize the initial stage of microtubule polymerization during micropipette aspiration.

NMM-IIA pS1943 = experiment: pS1943 of NMM-IIA by phospho-specific flow cytometry; conditions: under cytokine stimulation (SCF and Tpo)
Procedure: (§1) Cells were fixed with 4% paraformaldehyde in PBS for 10 min, washed with PBS and resuspended in 0.1% saponin in HBSS (staining medium). The samples were then stained with antibodies against cytoplasmic antigens, including NMM-IIA (Sigma), NMM-IIB, phospho-NMM-IIA and caspase-3 (all from Cell Signaling Technology) for 30 min at room temperature. In some cases, cells were concurrently stained with PE anti-CD34 or anti-human CD38 for subpopulation analysis. Cells were then washed and stained with anti-rabbit or mouse secondary antibodies conjugated with Alexa 647 (Invitrogen) for 30 min, followed by analysis on FACSCalibur.

CD34+-derived cells = experiment: Apoptosis by cleaved caspase-3 intracellular flow cytometry and Annexin-V; conditions: cleaved caspase-3 and Annexin-V+
Procedure: as §1

Cc1ccc2c(c1)C(=O)C1(O)CCN(c3ccccc3)C1=N2 (racemic) [blebbistatin, (±)-blebbistatin]
concentration under which BFU-E and CFU-GEMM numbers are not changed [1]: ~15 µM
pIC50 ([1]; SCF and Tpo, n≥3 donors, read-out: BFU-E IC50): 4.73
pIC50 ([1]; SCF and Tpo, n≥3 donors, read-out: CFU-GM IC50): 4.98
concentration of maximum BFU-E relative to CFU-GM ratio ([1]; absence of Epo): 12.5 µM
pIC50 ([1]; absence of Epo, n=3 donors, read-out: BFU-E relative to CFU-GM IC50): 5.00
increase of BFU-E to CFU-GM ratio ([1]; at 12.5 μM): 2 fold
in vitro platelets per CD41+ cell vs untreated MKs (MKs): 2.5 fold
median fragmentation threshold (effective membrane tension) (BM CD34+-derived cells; 20 μM): ~1 mN/m
compliance, median slope of aspiration length vs tension (BM CD34+-derived cells; 20 μM, unfragmented cells): 3.79±0.84 (mN/m)^−1
increase in compliance (BM CD34+-derived cells; after 30 min): approximately four
treated cells that fragment (BM CD34+-derived cells; after 30 min): 40%
effect on pS1943 level (NMM-IIA pS1943): inhibits the reduction of pS1943
increase in apoptosis (CD34+-derived cells): about 2 fold
